smiles,measurement,value
Cc1cc(NC(=O)c2ccccc2)cc(C(=O)NC(C)C)c1NC(=O)c1cc(C(F)(F)F)nn1-c1ncccc1Cl,melting point,231 to 233 °C

# Source: US7199138B2, “Substituted anthranilamides for controlling invertebrate pests” (E. I. du Pont de Nemours and Company, priority 2001, dated 2007)
